Read-outs that look alike come from different tables or passages of the source.
Assays:
Assay type in all cases: binding
[1] = molecular target: T1, mTOR (Homo sapiens, UniProt P42345); assay: mTOR kinobeads assay (dot blot detection)
T1 construct: endogenous in cells; host or cells: Jurkat cells (ATCC TIB-152, clone E6-1), lysate
Description: (§1) The compounds of the present invention as described were tested in the mTOR kinobeads assay as described below. Briefly, test compounds (at various concentrations) and the affinity matrix (1:1 mixture of beads with immobilized phenylthiazole ligand 1 and beads with immobilized phenylmorpholin-chromen ligand; WO 2009/098021) were added to cell lysate aliquots and allowed to bind to the proteins in the lysate sample. After the incubation time the beads with captured proteins were separated from the lysate. Bound proteins were then eluted and the presence of mTOR, PI3K delta (PI3 Kd) and DNA-dependent protein kinase (DNA-PK) was detected and quantified using a specific antibody in a dot blot procedure and the Odyssey infrared detection system. Dose response curves for individual kinases were generated and IC50 values calculated. Kinobeads assays for PI3 kinases (WO-A 2008/015013) and for kinase selectivity profiling (WO 2009/098021) have been previously described.
(§2) The affinity matrix (beads with immobilized phenylmorpholin-chromen ligand) was washed two times with 15 ml of 1×DP buffer containing 0.2% NP40 (IGEPAL® CA-630, Sigma, #13021) and then resupended in 5.5 ml of 1×DP buffer containing 0.2% NP40 (10% beads slurry).
(§3) 5×DP buffer: 250 mM Tris-HCl pH 7.4, 25% Glycerol, 7.5 mM MgCl2, 750 mM NaCl, 5 mM Na3VO4, filter the 5×-lysis buffer through 0.22 μm filter and store in aliquots at −80° C. The 5×DP buffer is diluted to 1×DP buffer containing 1 mM DTT and 25 mM NaF.
(§4) Stock solutions of test compounds were prepared in DMSO. In a 96 well plate 30 μl solution of diluted test compounds at 5 mM in DMSO were prepared. Starting with this solution a 1:3 dilution series (9 steps) was prepared. For control experiments (no test compound) a buffer containing 2% DMSO was used. Compound CZC00018052 served as a positive control (PI-103; Calbiochem catalogue number 528100).
(§5) Jurkat cells (ATCC catalogue number TIB-152 Jurkat, clone E6-1) were grown in 1 litre Spinner flasks (Integra Biosciences, #182101) in suspension in RPMI 1640 medium (Invitrogen, #21875-034) supplemented with 10% Fetal Bovine Serum (Invitrogen) at a density between 0.15×10^6 and 1.2×10^6 cells/ml. Cells were harvested by centrifugation, washed once with 1×PBS buffer (Invitrogen, #14190-094) and cell pellets were frozen in liquid nitrogen and subsequently stored at −80° C.
(§6) Jurkat cells were homogenized in a Potter S homogenizer in lysis buffer: 50 mM Tris-HCl, 0.8% NP40, 5% glycerol, 150 mM NaCl, 1.5 mM MgCl2, 25 mM NaF, 1 mM sodium vanadate, 1 mM DTT, pH 7.5. One complete EDTA-free tablet (protease inhibitor cocktail, Roche Diagnostics, 1873580) per 25 ml buffer was added. The material was dounced 10 times using a mechanized POTTER S, transferred to 50 ml falcon tubes, incubated for 30 minutes on ice and spun down for 10 min at 20,000 g at 4° C. (10,000 rpm in Sorvall SLA600, precooled). The supernatant was transferred to an ultracentrifuge (UZ)-polycarbonate tube (Beckmann, 355654) and spun for 1 hour at 100.000 g at 4° C. (33.500 rpm in Ti50.2, precooled). The supernatant was transferred again to a fresh 50 ml falcon tube, the protein concentration was determined by a Bradford assay (BioRad) and samples containing 50 mg of protein per aliquot were prepared. The samples were immediately used for experiments or frozen in liquid nitrogen and stored frozen at −80° C.
(§7) Jurkat cell lysate (approximately 50 mg protein per plate) was thawed in a water bath at room temperature and then kept on ice. To the thawed cell lysate 1×DP 0.8% NP40 buffer containing protease inhibitors (1 tablet for 25 ml buffer; EDTA-free protease inhibitor cocktail; Roche Diagnostics 1873580) was added in order to reach a final protein concentration of 5 mg/ml total protein. The diluted cell lysate was stored on ice. […]

[2] = molecular target: T2, PI3K delta (PI3Kd) (Homo sapiens, UniProt O00329); assay: kinobeads assay, PI3K delta (dot blot detection)
T2 construct: endogenous in cells; host or cells: Jurkat cells (ATCC TIB-152, clone E6-1), lysate
T2 sequence (O00329 whole entry): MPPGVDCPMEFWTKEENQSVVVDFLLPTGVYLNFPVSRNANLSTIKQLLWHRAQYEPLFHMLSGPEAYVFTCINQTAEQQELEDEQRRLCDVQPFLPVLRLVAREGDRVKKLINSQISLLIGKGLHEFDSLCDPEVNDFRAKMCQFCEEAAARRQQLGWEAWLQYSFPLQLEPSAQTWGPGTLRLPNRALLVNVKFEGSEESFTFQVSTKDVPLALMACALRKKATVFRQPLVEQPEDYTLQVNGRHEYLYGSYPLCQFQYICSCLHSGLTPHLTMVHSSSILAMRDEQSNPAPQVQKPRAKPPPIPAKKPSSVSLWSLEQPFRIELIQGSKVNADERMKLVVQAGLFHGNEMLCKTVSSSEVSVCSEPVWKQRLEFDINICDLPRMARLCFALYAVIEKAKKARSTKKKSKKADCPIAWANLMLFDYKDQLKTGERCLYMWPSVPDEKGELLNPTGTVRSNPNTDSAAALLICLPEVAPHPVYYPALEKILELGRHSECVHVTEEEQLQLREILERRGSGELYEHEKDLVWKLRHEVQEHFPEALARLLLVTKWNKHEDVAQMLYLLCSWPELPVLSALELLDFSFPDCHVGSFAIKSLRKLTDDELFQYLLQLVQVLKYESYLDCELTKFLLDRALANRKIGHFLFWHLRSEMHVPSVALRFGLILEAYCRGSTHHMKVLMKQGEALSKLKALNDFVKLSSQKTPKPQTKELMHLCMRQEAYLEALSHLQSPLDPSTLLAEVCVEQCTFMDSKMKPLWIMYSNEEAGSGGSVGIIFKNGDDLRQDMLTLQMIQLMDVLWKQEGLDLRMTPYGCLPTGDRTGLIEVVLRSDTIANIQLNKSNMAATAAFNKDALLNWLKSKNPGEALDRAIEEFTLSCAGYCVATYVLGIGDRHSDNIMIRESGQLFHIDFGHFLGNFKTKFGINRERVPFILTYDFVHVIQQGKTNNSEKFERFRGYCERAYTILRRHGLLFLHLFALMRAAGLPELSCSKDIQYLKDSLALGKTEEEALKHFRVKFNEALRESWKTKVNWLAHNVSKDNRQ
T2 sequence (P27986 whole entry partner): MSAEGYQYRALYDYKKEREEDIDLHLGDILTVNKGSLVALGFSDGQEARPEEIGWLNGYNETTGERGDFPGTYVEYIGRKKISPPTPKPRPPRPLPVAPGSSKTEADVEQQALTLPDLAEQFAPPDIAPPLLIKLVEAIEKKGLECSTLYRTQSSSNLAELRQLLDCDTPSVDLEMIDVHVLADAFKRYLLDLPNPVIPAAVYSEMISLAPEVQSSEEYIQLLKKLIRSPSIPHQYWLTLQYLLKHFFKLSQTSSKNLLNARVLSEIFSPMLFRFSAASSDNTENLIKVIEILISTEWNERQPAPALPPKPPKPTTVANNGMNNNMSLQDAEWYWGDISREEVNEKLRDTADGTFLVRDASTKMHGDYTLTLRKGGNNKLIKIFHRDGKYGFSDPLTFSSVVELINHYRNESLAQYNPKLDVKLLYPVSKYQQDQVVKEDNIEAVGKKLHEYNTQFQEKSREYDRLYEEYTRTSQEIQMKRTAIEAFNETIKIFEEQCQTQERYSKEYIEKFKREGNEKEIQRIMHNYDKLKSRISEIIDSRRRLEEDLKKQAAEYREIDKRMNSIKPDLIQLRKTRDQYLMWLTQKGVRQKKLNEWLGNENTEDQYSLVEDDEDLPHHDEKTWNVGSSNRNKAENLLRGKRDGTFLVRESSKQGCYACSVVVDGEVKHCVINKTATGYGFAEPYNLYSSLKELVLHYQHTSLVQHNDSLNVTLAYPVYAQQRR
Description: as §1, §2, §3, §4, §5, §6, §7

[3] = molecular target: T3, DNA-dependent protein kinase (DNA-PK) (Homo sapiens, UniProt P78527); assay: kinobeads assay, DNA-PK (dot blot detection)
T3 construct: endogenous in cells; host or cells: Jurkat cells (ATCC TIB-152, clone E6-1), lysate
Description: as §1, §2, §3, §4, §5, §6, §7

[4] = Table 2, Jurkat cell lysate, read-out: Inhibition values (IC50) mTor
[5] = Table 4, read-out: Inhibition values (IC50) mTOR
[6] = Table 2, Jurkat cell lysate, read-out: Inhibition values (IC50) PI3Kd
[7] = Table 4, read-out: Inhibition values (IC50) PI3Kd
[8] = Table 2, Jurkat cell lysate, read-out: Inhibition values (IC50) DNAPK
[9] = Table 4, read-out: Inhibition values (IC50) DNAPK

Row | SMILES | IC50 [1, 4] [µM] | IC50 [1, 5] [µM] | IC50 [2, 6] [µM] | IC50 [2, 7] [µM] | IC50 [3, 8] [µM] | IC50 [3, 9] [µM]
1 | CCNC(=O)Nc1ccc(-c2cc(-c3ccccc3S(C)(=O)=O)nc(N3CCOCC3)n2)cc1 [Example 20, 1-ethyl-3-(4-(6-(2-(methylsulfonyl)phenyl)-2-morpholinopyrimidin-4-yl)phenyl)urea] | 1 to 10 | 1 to 10 | ≥ 10 | ≥ 10 | ≥ 10 | ≥ 10
2 | CNC(=O)Nc1ccc(-c2nccc(N3CCOCC3)n2)cc1 [Example 27, 1-methyl-3-(4-(4-morpholinopyrimidin-2-yl)phenyl)urea] | 1 to 10 | 1 to 10 | 1 to 10 | 1 to 10 | 1 to 10 | 1 to 10
3 | CCCNC(=O)Nc1ccc(-c2ccnc(N3CCOCC3)n2)cc1 [Example 31, 1-propyl-3-(4-(2-morpholinopyrimidin-4-yl)phenyl)urea] | 1 to 10 | 1 to 10 | ≥ 10 | ≥ 10 | 1 to 10 | 1 to 10
4 | CCCNC(=O)Nc1ccc(-c2nccc(N3CCOCC3)n2)cc1 [Example 32, 1-(4-(4-morpholinopyrimidin-2-yl)phenyl)-3-propylurea] | 1 to 10 | 1 to 10 | ≥ 10 | ≥ 10 | 1 to 10 | 1 to 10
5 | NC(=O)Nc1ccc(-c2nccc(N3CCOCC3)n2)cc1 [Example 33, 1-(4-(4-morpholinopyrimidin-2-yl)phenyl)urea] | 1 to 10 | 1 to 10 | 1 to 10 | 1 to 10 | 1 to 10 | 1 to 10
6 | CCNC(=O)Nc1ccc(-c2nccc(N3CCOCC3)n2)cc1 [Example 36, 1-ethyl-3-(4-(4-morpholinopyrimidin-2-yl)phenyl)urea] | 1 to 10 | 1 to 10 | ≥ 10 | ≥ 10 | 1 to 10 | 1 to 10

Reference: patent US9249129B2, “Morpholino substituted urea derivatives as mTOR inhibitors” (CELLZOME LIMITED, priority 2010, dated 2016)
